From PubChem BioAssay AID179 (DTP/NCI, 2004)
Values joined by “and” are separate entries in the source; they are usually repeats but may differ in a detail not shown here. Equal values may be shown once. Active and inactive are the calls of the source.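 Rule for the calls: active = compounds giving half or more protection of infected cells from virus-caused growth loss, again on retest; inactive = the rest.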

System: CEM cells HIV-1 protection, formazan growth assay
Assay: NCI AIDS Antiviral Assay
Details: for IC50: measured here: growth of uninfected CEM cells
Description: The ability of compounds to protect human CEM cells from HIV-1 infection is measured as a screen for new compounds capable of inhibiting the HIV virus. Five concentrations of drug were tested on uninfected and infected cells and cell growth was measured using a soluble formazan assay. […] Compounds that provided at least 50% protection were retested. Compounds that provided at least 50% protection on retest were listed as moderately active. Compounds that reproducibly provided 100% protection were listed as confirmed active. […] Note that the inability to provide protection could be due to toxicity.

| SMILES | EC50 | IC50 | outcome |
| --- | --- | --- | --- |
| O=S(=O)(O/C1=C/CCCCCC1)C(F)(F)F | > 100 µM | > 100 µM | – |
| CC(=O)Oc1c(C)c2c(c3ccccc13)OC(C)(C)C2 | > 200 µM | 24 µM | – |
| COC(=O)[C@@H]1CSC(=S)N1C(=O)C[C@@H]1CC=CC[C@@H]1CC(=O)Sc1ccccc1 | – | – | inactive |
| CCOC(=O)[C@H]1Nc2ccc(Cl)cc2[C@H]2c3ccccc3O[C@H]21 | > 30.2 µM | > 30.2 µM | – |
| COC1/C=C/OC2(C)Oc3c(C)c(O)c4c(O)c(c(C=NN5CCCCCCCCCCCC5)c(O)c4c3C2=O)NC(=O)/C(C)=C/C=C/C(C)C(O)C(C)C(O)C(C)C(OC(C)=O)C1C (stereo unspecified) | – | – | inactive |
| N#Cc1c(C(N)=O)ncn1Cc1ccccc1 | – | – | inactive |
| CN(c1ccccc1)S(=O)(=O)c1ccc(Cl)cc1 | > 200 µM | – | – |
| O=C(OCCc1ccccc1)c1ccc2c(O)c(O)ccc2c1 | > 8.32 µM | 6.03 µM | – |
| COc1cccc(NC(=O)N/C(=C/c2ccc(N(CCC#N)CCC#N)cc2)NC(=O)c2cc([N+](=O)[O-])ccc2Cl)c1 | > 12.3 µM | 11.5 µM | – |
| CCCCCCCCCCCCCCNC1=C(OC)C(=O)C(NCCCCCCCCCCCCCC)=C(OC)C1=O | > 79.4 µM | > 79.4 µM | – |
| CC(=O)N1C(Nc2cccc3nc(C)ccc23)CCN1c1ccccc1 (stereo unspecified) | > 200 µM | 14.8 µM | – |
| COc1ccc(OC)c(/C=C2/C(=O)N=C(NC(C)=O)N2C)c1 | > 200 µM | > 200 µM | – |
| O=S(=O)(O)CCCO | > 200 µM | > 200 µM | – |
| CC(=O)Nc1ccc(S(=O)(=O)NN=C2CCCC2)cc1 | > 851 µM | 708 µM | – |
| Cc1ccc(C2(c3ccccc3)OC3OC=CC32)cc1 (stereo unspecified) | > 200 µM | 70.8 µM | – |
| Cc1ccc(-c2cnc(NC3OC(COC(=O)c4ccccc4)C(OC(=O)c4ccccc4)C(OC(=O)c4ccccc4)C3OC(=O)c3ccccc3)s2)cc1 (stereo unspecified) | > 200 µM | 13.8 µM | – |
| O=C(O)C1NCCc2c1[nH]c1ccccc21 (stereo unspecified) | – | – | inactive |
| N.N.N.N.N.NC(=O)[O-].[Co+3].[I-] | – | – | inactive |
| Cc1c(O)c(OC2OC(CO)C(O)C(O)C2O)cc2c1C=C[C@@H]1[C@@]2(C)C(=O)C[C@]2(C)[C@@H]([C@@](C)(O)C(O)/C=C/C(C)(C)O)[C@H](O)C[C@@]12C (stereo partly specified) | > 200 µM | > 200 µM | – |
| Cc1cc(C)c2c(c1)sc1n[nH]c(=S)n12 | > 63.1 µM | > 63.1 µM | – |
| CNc1ncc2nc(C(=O)O)c(=O)n(C)c2n1 | > 200 µM | > 200 µM | – |
| CCOC(=O)NNC(=O)NCCCCNC(=O)NNC(=O)OCC | > 200 µM | > 200 µM | – |

| SMILES | EC50 | IC50 | outcome |
| --- | --- | --- | --- |
| CN(CCO)c1nc(=O)c2c(n1C1OC(CO)C(O)C(O)C1O)CCCC2 (stereo unspecified) | > 339 µM | > 339 µM | – |
| NS(=O)(=O)c1cc[c]([Sb]=[O])cc1 | > 200 µM | 61.7 µM | – |
| COc1ccc(O)c(/C=N/NC(=S)N2CCCCC2)c1 | > 200 µM | 8.13 µM | – |
| Clc1ccc(/C(=C/c2ccccc2)Cn2ccnc2)cc1 | > 200 µM | 35.5 µM | – |
| CN(C)CCCSc1c2ccccc2nc2cc(NCC(=O)Nc3ccccc3-c3ccccc3NC(=O)CNc3ccc4c(SCCCN(C)C)c5ccccc5nc4c3)ccc12 | > 123 µM | 58.9 µM | – |
| CCSC(=O)OCn1ncc2cc([N+](=O)[O-])ccc21 | > 200 µM | 95.5 µM | – |
| [B]C(=O)NC(CC(C)C)C(=O)NC1c2ccsc2C(=O)C1O (stereo unspecified) (tested in a mixture with another compound) | > 200 µM | > 200 µM | – |
| CC1/C(=N/O)CC(c2ccccc2)N(N=O)C1c1ccccc1 (stereo unspecified) | > 200 µM | 129 µM | – |
| CNC(=O)NCCCCC(NC(=O)OCc1ccccc1)C(=O)OCc1ccccc1 (stereo unspecified) | > 83.2 µM | 60.3 µM | – |
| COC1(OC)CC2C(=O)N(Cc3ccccc3)C1C(S(=O)(=O)c1ccccc1)C2C(C)S(=O)(=O)c1ccccc1 (stereo unspecified) | > 23.4 µM | > 23.4 µM | – |
| CCOC(=O)c1ccc(-c2cc(C)[nH]n2)[nH]1 | > 200 µM | 77.6 µM | – |
| N#Cc1c(-c2ccc(Cl)cc2)c(C#N)c(=O)n(NS(=O)(=O)c2ccccc2)c1-c1ccccc1 | > 151 µM | 32.4 µM | – |
| CC(=O)c1nc2ccccc2n1C(C)C(=O)c1ccccc1 (stereo unspecified) | > 200 µM | 11.2 µM | – |
| COc1ccc(/C=C/CN(C)CCc2ccccc2)cc1OC | – | – | inactive |
| Cc1ccnc(NC(=O)Nc2cc(F)ccc2F)c1 | > 200 µM | > 200 µM | – |
| O=C1CCCCC/C1=C\c1cccc(F)c1 | > 200 µM | > 100 µM | – |
| CC(=O)OC(=C(C#N)C#N)c1nccnc1C(=O)O | > 200 µM | > 200 µM | – |
| O=C1CC(c2ccc(O)cc2)C2(O1)C(=O)OC1C(O)COC12O (stereo unspecified) | – | – | inactive |
| O[C@H]1[C@H](O)[C@@H](Cn2nnc(-c3ccccc3)c2-c2ccccc2)OCO[C@@H]1Cn1nnc(-c2ccccc2)c1-c1ccccc1 | > 200 µM | 9.55 µM | – |
| S=P(N1CC1)(N1CC1)N1CC1 | > 1320 µM | 3.16 µM | – |
| O=c1oc(-c2cccc(-c3nc4c(c(=O)o3)CCS4)c2)nc2c1CCS2 | > 200 µM | – | – |
| Cc1ccc2c(c1)-c1nc(N)c(C#N)c(-c3ccccc3)c1CCS2(=O)=O | > 200 µM | > 200 µM | – |

| SMILES | EC50 | IC50 | outcome |
| --- | --- | --- | --- |
| CC1=CC(C)(C)[C@H]2O[C@@]3(O)C[C@]4(C)[C@H]5C[C@@](C(C)C)(O[C@H]4c4ccoc4)O[C@H]4[C@]5(C3)O[C@@]1(O)[C@]24O | > 100 µM | > 100 µM | – |
| CN(C)c1ccc2c(c1)C(=O)N(OS(=O)(=O)c1ccccc1)C2=O | – | – | inactive |
| O=C1OC(=O)C2C1C1C(c3ccccc3)=C(c3ccccc3)C2(O)C2C(=O)OC(=O)C12 (stereo unspecified) | > 17.4 µM | 10.2 µM | – |
| N#CC(/C=C/c1ccccc1)Nc1ccccc1N (stereo unspecified) | > 28.8 µM | > 28.8 µM | – |
| COC(=O)C1CCC(=O)N1C(c1cc(OC)c(OC)c(OC)c1)c1cccc2ccccc12 (stereo unspecified) | > 200 µM | 83.2 µM | – |
| COc1cc(OC)c(/C=N\Nc2nc3ccccc3c(=O)n2-c2ccccc2)c(OC)c1 | > 50.1 µM | 37.2 µM | – |
| CS(=O)(=O)N1CC(CCl)c2ccc(NO)cc21 (stereo unspecified) | > 200 µM | 3.72 µM | – |
| COc1ccc(C(C)NNC(=O)c2ccncc2)cc1F (stereo unspecified) | > 200 µM | 112 µM | – |
| CC(=O)SC1CC(=O)C=C2CCC3C4CCC(=O)OC4(C)CCC3C21C (stereo unspecified) | > 200 µM | > 200 µM | – |
| CN1c2ccccc2Oc2ccc3ccccc3c21 | > 200 µM | 135 µM | – |
| O=[N+]([O-])c1cc(C(F)(F)F)ccc1S(=O)(=O)N[C@@H]1CCCC[C@H]1NS(=O)(=O)c1ccc(C(F)(F)F)cc1[N+](=O)[O-] | > 200 µM | 3.98 µM | – |
| N=C(N)SCc1cccc2c(=O)cc(-c3ccccc3)oc12 | > 646 µM | 5.62 µM | – |
| CN1C(=O)/C(=C2\SC(=O)N(Cc3nc4ccccc4[nH]3)C2=O)c2cc(Br)ccc21 | > 200 µM | 12.9 µM | – |
| CC(/C=C/C(=O)c1sc(C(N)=S)nc1C)=C\c1ccccc1 | > 79.4 µM | > 79.4 µM | – |
| CN(C)N=Nc1ccc2[nH]c(=O)[nH]c2c1 | > 200 µM | 102 µM | – |
| CC(=O)c1cccc(NCn2nnc3ccccc32)c1 | > 200 µM | 95.5 µM | – |
| CN1C(=O)CSC1=S | > 1700 µM | 4.79 µM and 36.3 µM | – |
| O=[N+]([O-])c1ccc2c(N=Nc3ccc4ccccc4c3O)c(O)cc(S(=O)(=O)O)c2c1 | > 200 µM | 27.5 µM | – |
| O=C(O)C1(P(=O)(O)O)CC1 | – | – | inactive |
| COc1cc(/C=C2/SC(c3ccccc3)N(c3ccccc3Cl)C2=O)cc(OC)c1OC (stereo unspecified) | > 200 µM | 43.7 µM | – |
| O=C(/C=C/c1cccc(F)c1)c1ccccc1 | > 31.6 µM | 19.1 µM | – |
| COC(=O)C1(C(=O)OC)N=C(C)OC1C(C)C (stereo unspecified) | > 200 µM | > 200 µM | – |

| SMILES | EC50 | IC50 | outcome |
| --- | --- | --- | --- |
| COc1cc(NCCN)c2ncsc2c1 | > 200 µM | 85.1 µM | – |
| C/C(CC(=O)Nc1cccc(Cl)c1C)=N\NC(N)=S | > 120 µM | > 120 µM | – |
| NC(CCC(=O)O)(C(=O)O)c1ccccc1 (stereo unspecified) | > 200 µM | > 200 µM | – |
| NCCNCCCNC(=O)c1cc(-c2ccccc2)nc2ccccc12 | > 200 µM | 53.7 µM | – |
| CCCN(C)C(=O)N(CC)S(=O)(=O)c1ccc(Cl)cc1 | – | – | inactive |
| COc1cc(OC)c2c(=O)c(OC)c(-c3ccc4c(c3)OCO4)oc2c1OC | > 200 µM | > 200 µM | – |
| CCOC(=O)CN1C(=O)c2ccc(NC(=O)C(=O)O)cc2S1(=O)=O | > 200 µM | > 200 µM | – |
| O=S(=O)(O)c1cc(N=Nc2cc(S(=O)(=O)O)c3ccccc3c2O)ccc1/C=C/c1ccc(N=Nc2cc(S(=O)(=O)O)c3ccccc3c2O)cc1S(=O)(=O)O | 33.9 µM and 12.3 µM | 191 µM and > 200 µM | – |
| CC(C)(C)C1C2N1C1(c3ccccc3)OC2(c2ccccc2)c2ccccc21 (stereo unspecified) | > 10.2 µM | > 10.2 µM | – |
| CC(=O)OC1CCC2(COS(=O)(=O)c3ccc(C)cc3)C(=CCC3C2CCC2(C)C(C(C)CCCC(C)C)CCC32)C1 (stereo unspecified) | > 200 µM | > 200 µM | – |
| CN(C)CCn1c2c(c3ccccc31)CCc1ccccc1-2 | > 200 µM | 15.5 µM | – |
| N#CCCN(CCC#N)c1ccc(/C=C2\N=C(c3cc([N+](=O)[O-])ccc3Cl)N(S(=O)(=O)c3ccccc3)C2=O)cc1 | > 12.3 µM | > 12.3 µM | – |
| O=C(NNc1nc2cc(F)ccc2n2cccc12)c1cnccn1 | > 200 µM | 3.47 µM | – |
| CCCCOC(=O)C(=O)/C(=C/N1C(=O)/C(=C/C(C)=C/c2ccccc2)SC1=S)C(=O)C=C(C)C | > 100 µM | 14.8 µM | – |
| O=C(N/C(=C\c1cc(Cl)ccc1Cl)c1nc2ccccc2[nH]1)c1ccccc1 | – | – | inactive |
| Cc1cc(=O)[nH]c(NNC(C#N)c2cccc(O)c2)n1 (stereo unspecified) | > 347 µM | 123 µM | – |
| O=C(Nc1ccccc1)C(c1ccccc1)N(Nc1ccccc1)c1ccccc1 (stereo unspecified) | – | – | inactive |
| CC#CCCC1(C)CCCCN(C(=O)OC(C)C)C1OCC (stereo unspecified) | > 43.7 µM | > 43.7 µM | – |
| CCCC(O)c1ccc2[nH]c3c(C)cc([N+](=O)[O-])c(C)c3c2c1 (stereo unspecified) | > 4.68 µM | > 4.68 µM | – |
